Assay results: patent publication US20010041177A1, “Methods for detecting inflammation and inflammatory conditions” (priority 2000, published 2001)

How the values were obtained:
[1] = test system: monocyte CD163 expression; test: CD163 expression on monocytes of PBMCs cultured with mediators, staining and flow cytometric analysis; type: cell-based, human; conditions: for increase of monocyte CD163 expression: PBMCs treated 24 hours, DEX 200 nM; for effect of cytokine alone on monocyte CD163 expression: at the concentrations tested
Method: To assess whether different cytokines could influence CD163 expression, freshly isolated PBMCs were cultured for 24 hours in the presence of various cytokines, 200 nM DEX (as a positive control for CD163 upregulation), or control media. The cells were then subjected to staining and flow cytometric analysis.
For cytokine treatment studies, isolated PBMCs were suspended in hepes buffered RPMI 1640/0.05% gentamicin/10% FBS at a concentration of 2.0×10^6 to 2.5×10^6 cells/ml and cultured in 96 well plates at 37° C. and 5% CO2 in the presence of various mediators (Table 1). Mononuclear cells were stained for flow cytometric analysis after 24 hours in culture unless otherwise indicated. This enhanced cell recovery because monocytes, which initially adhere to plastic vessels, transiently detach from culture wells at 24-48 hours.
All staining procedures were performed at 4 C. Briefly, cultured PBMCs were incubated with normal human IgG (6 mg/ml) to block Fc receptor-specific binding of mAbs and 30 μg/ml of the isotype control mAb P3 or a saturating amount of mAb MAC2-48 (20 μg/ml) for one hour. Cells were then washed and stained for one hour with 17.5 μg/ml FITC labeled goat F(ab=)2 anti-mouse Ig. The cells were again washed and fixed with 1% methanol free formalin.
Cell fluorescence of monocytes gated using forward and side scatter was analyzed using a Becton Dickenson FACScan (Franklin Lakes, N.J.). Mean fluorescence intensity (MFI) was calculated by subtracting the MFI of the P3 stained mononuclear cells from the MFI of the corresponding Mac2-48 stained cells.

[2] = test system: CD163 expression on monocytes; test: Monocytes cultured with LPS, DEX or IL-10, surface CD163 by immunofluorescence; type: cell-based, human; conditions: monocytes cultured with the agent alone
Method: In addition to testing the effects of cytokines in combination with glucocorticoids on levels of CD163, studies were performed to examine the effects of glucocorticoids in combination with lipopolysaccharide (LPS). […] However, when monocytes were cultured for 48 hours with DEX combined with LPS, their was a synergistic increase in CD163 expression, where the effect of DEX alone was increased by more than 2-fold when LPS treatment was added.

[3] = test system: CD163 mRNA; test: Northern blots of CD163 mRNA in treated monocytes; type: cell-based, human; conditions: monocytes treated 8 hours; 5 ng/ml IL-10 or 10^-8 M FP
Method: Monocytes were treated for 8 hours with either IL-10, the glucocorticoid FP or control media.
Human monocytes were isolated and cultured overnight as described for western blots. Monocytes were then stimulated for 8 hours with 5 ng/ml IL-10 (R&D Systems) or 10^-8 M FP. Total RNA was isolated from IL-10 stimulated, glucocorticoid stimulated and control monocytes as described by Dreier, et al. (Dreier, J. et al. 1998. DNA Cell Biol. 17:321-323). 10 μg of total RNA per sample were electrophoretically separated in a 1% agarose, 2% formaldehyde gel and transferred onto a Hybond N^+nylon membrane (Amersham Inc., Arlington Heights, Ill.) in 20x saline-sodium citrate (SSC) using an LKB 2016 VacuGene blotting apparatus. Antisense RNA probes for northern hybridization were generated from linearized DNA templates using a digoxigenin RNA labeling kit (Boehringer Mannheim, Mannheim, Germany) and T7 RNA polymerase (New England Biolabs, Schwalbach, Germany) as described by the manufacturer. Prehybridization was performed at 68° C. for 1 hr in a high SDS hybridization buffer (7% SDS, 5x SSC, 50% formamide, 50 mM sodium phosphate, 2% casein, 0.1% N-lauroylsarcosine, pH 7.0). Subsequently the heat-denatured probes (10 minutes at 95° C.) were added to the prehybridization solution (100 ng/ml) and hybridized at 68° C. for 16 hours. […]

[4] = test system: monocyte surface CD163; test: Shedding of monocyte surface CD163 in vitro; type: cell-based, human; conditions: cells pretreated with glucocorticoids plus LPS
Method: Therefore, like PMA, LPS is capable of inducing CD163 shedding. LPS-induced shedding occurred even with monocytes that had been cultured for 48 hours in DEX and thus had 5- to 10-fold higher levels of surface CD163 than freshly isolated monocytes. […] This LPS-conferred resistance to subsequent LPS-induced shedding of CD163 is similar to reported endotoxin pre-conditioning for resistance to subsequent inflammatory insults.

[5] = test system: monocyte surface CD163; conditions: Droste et al. 1999; blocked by protease inhibitors; cited from earlier work
[6] = test system: CD163 expression on monocytes; conditions: purified monocytes, 2 days; cited from earlier work

C[C@@H]1C[C@H]2[C@@H]3CCC4=CC(=O)C=C[C@]4(C)[C@@]3(F)[C@@H](O)C[C@]2(C)[C@@]1(O)C(=O)CO [DEX, reference compound]
increase of monocyte CD163 expression ([1]; p<0.01): ~7 fold | surface CD163 on monocytes, single agent [2]: increased expression of CD163

CCC(=O)O[C@]1(C(=O)SCF)[C@H](C)C[C@H]2[C@@H]3C[C@H](F)C4=CC(=O)C=C[C@]4(C)[C@@]3(F)[C@@H](O)C[C@@]21C [FP, reference compound]
CD163 mRNA levels [3]: increased from undetectable to strong bands

CCCCCCCCCCCCCC(=O)O[C@@H]1[C@@H](C)[C@@]2(O)[C@@H](C=C(CO)C[C@]3(O)C(=O)C(C)=C[C@@H]23)[C@@H]2C(C)(C)[C@]12OC(C)=O [PMA]
shedding of surface CD163 on subsequent treatment [4]: remained sensitive to PMA-induced shedding | shedding of surface CD163 from monocytes in culture [5]: induce rapid shedding of surface CD163

GM-CSF: granulocyte-macrophage colony stimulating factor
effect of cytokine plus DEX on CD163 expression over DEX treatment alone ([1]; PBMCs 24 hours): does not enhance CD163 expression over DEX treatment alone | effect of cytokine alone on CD163 expression [6]: neither GM-CSF nor IL-4 alone had any effect | effect of cytokine plus DEX on CD163 expression [6]: synergistic effect

IL-13: interleukin-13, a cytokine
effect of cytokine alone on monocyte CD163 expression ([1]; PBMCs 24 hours): did not upregulate CD163 expression

B1: IL-4: interleukin-4, a cytokine (protein, UniProt P05112 25-153, looked up)
Interleukin-4: HKCDITLQEIIKTLNSLTEQKTLCTELTVTDIFAASKNTTEKETFCRAATVLRQFYSHHEKDTRCLGATAQQFHRHKQLIRFLKRLDRNLWGLAGLNSCPVKEANQSTLENFLERLKTIMREKYSKCSS
effect of cytokine plus DEX on CD163 expression over DEX treatment alone ([1]; PBMCs 24 hours): does not enhance CD163 expression over DEX treatment alone | effect of cytokine alone on monocyte CD163 expression ([1]; PBMCs 24 hours): did not upregulate CD163 expression | effect of cytokine alone on CD163 expression [6]: neither GM-CSF nor IL-4 alone had any effect | effect of cytokine plus DEX on CD163 expression [6]: synergistic effect

B2: IL-10: Interleukin-10 (originally known as cytokine synthesis inhibitory factor), a cytokine (protein, UniProt P22301 19-178, looked up)
Interleukin-10: SPGQGTQSENSCTHFPGNLPNMLRDLRDAFSRVKTFFQMKDQLDNLLLKESLLEDFKGYLGCQALSEMIQFYLEEVMPQAENQDPDIKAHVNSLGENLKTLRLRLRRCHRFLPCENKSKAVEQVKNAFNKLQEKGIYKAMSEFDIFINYIEAYMTMKIRN
increase of CD163 expression compared to control ([1]; PBMCs 24 hours, 10 and 100 ng/ml IL-10, p<0.01): approximately 3.5 fold | increase of monocyte CD163 expression ([1]; p<0.01): approximately 4 fold | CD163 mRNA levels [3]: increased from undetectable to strong bands | surface CD163 on monocytes, single agent [2]: increased expression of CD163
